For series [1], the target named is human Orexin type 1 receptors (Homo sapiens (Human), UniProt O43613). The series can be described thus: Scintillation Proximity Assay (SPA) binding assay, [3H]SB-674042 displacement, CHO-hOX1 membranes. The conditions noted are these: Table 2, [3H]SB-674042 2 nM. In general terms: SPA uses beads or plates that emit light when radiolabelled molecules are held near them.

Series [2] deals with human Orexin type 2 receptors (Homo sapiens (Human), UniProt O43614). Description: Scintillation Proximity Assay (SPA) binding assay, [3H]EMPA displacement, HEK-hOX2 membranes. The note with it: Table 2, [3H]EMPA 2 nM.
human Orexin type 2 receptors, sequence (O43614 whole entry): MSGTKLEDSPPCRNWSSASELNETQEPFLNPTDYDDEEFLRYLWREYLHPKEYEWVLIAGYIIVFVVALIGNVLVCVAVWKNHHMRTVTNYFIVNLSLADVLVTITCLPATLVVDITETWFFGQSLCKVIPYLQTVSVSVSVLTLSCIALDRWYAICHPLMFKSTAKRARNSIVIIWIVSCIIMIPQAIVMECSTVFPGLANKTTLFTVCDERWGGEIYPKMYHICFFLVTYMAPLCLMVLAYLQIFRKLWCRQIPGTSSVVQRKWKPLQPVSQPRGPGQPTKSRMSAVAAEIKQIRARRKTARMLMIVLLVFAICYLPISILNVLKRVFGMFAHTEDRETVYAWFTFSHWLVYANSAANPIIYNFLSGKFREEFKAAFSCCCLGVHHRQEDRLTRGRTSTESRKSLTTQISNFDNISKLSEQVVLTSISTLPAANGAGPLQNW
A short description of series [3]: Measurement of brain fraction unbound (equilibrium dialysis). Format: in vitro ADME. The conditions noted are these: pH 7.4, rat brain homogenate, 37° C., read-out: FU brain (%, rat). The method, then:
Measurement of Brain Fraction Unbound (Equilibrium Dialysis)
Brain fractions unbound were determined using equilibrium dialysis in a 96-well format as described in Kalvass and Maurer, 2002. Brain homogenates were prepared using 2 ml/g CSF surrogate (7.30 g/l NaCl, 186.4 mg/l KCl, 239.9 mg/l MgCl2, 185.2 mg/l CaCl2), and 536.0 mg/l Na2HPO4.7H2O, pH 7.4). Dialysis membranes (12-14-kDA cutoff) obtained from Spectrum Laboratories Inc. (Rancho Dominguez, Calif.) were conditioned in water (HPLC grade) for 60 min, followed by 20 min in 20% ethanol, and 15 min in CSF surrogate.
Assay compound concentrations were 5 μM. Diluted brain homogenate was spiked with the compound of interest, and 150-μl aliquots were loaded into the 96-well equilibrium dialysis apparatus and dialyzed against an equal volume of CSF surrogate. Equilibrium was achieved by incubating the 96-well equilibrium dialysis apparatus in a temperature-controlled incubator at 37° C. for 5 h, using an orbital shaker at 125 rpm. At the end of the incubation period, 50-μl aliquots of brain homogenate and buffer were transferred to a 96-well plate, and the composition in each tube was balanced with control fluid to equalize the brain and buffer volumes. Sample extraction was performed by addition of 400 μl of acetonitrile containing internal standard (rolipram). The samples were then vortex-mixed and centrifuged, and 100 μl of supernatants was transferred into a 96-well plate, diluted with 200 μl of 16% acetonitrile/water, and analyzed by liquid chromatography-tandem mass spectrometry (LC-MS/MS).
The brain unbound fraction (FU brain) was calculated from the ratio of analyte/internal standard peak area ratios determined in buffer versus brain homogenate samples using equation (1), which accounts for the effect of tissue dilution on unbound fraction (Kalvass and Maurer, 2002):
[formula] where D is the dilution factor in brain homogenate and fu-diluted is the measured free fraction of diluted brain tissue. Results

From patent US11660293B2, “Substituted 2-azabicyclo[3.1.1]heptane and 2-azabicyclo[3.2.1]octane derivatives as orexin receptor antagonists” (Chronos Therapeutics Limited, priority 2017, dated 2023) come the findings set out here.

human Orexin type 1 receptors, sequence (O43613 whole entry): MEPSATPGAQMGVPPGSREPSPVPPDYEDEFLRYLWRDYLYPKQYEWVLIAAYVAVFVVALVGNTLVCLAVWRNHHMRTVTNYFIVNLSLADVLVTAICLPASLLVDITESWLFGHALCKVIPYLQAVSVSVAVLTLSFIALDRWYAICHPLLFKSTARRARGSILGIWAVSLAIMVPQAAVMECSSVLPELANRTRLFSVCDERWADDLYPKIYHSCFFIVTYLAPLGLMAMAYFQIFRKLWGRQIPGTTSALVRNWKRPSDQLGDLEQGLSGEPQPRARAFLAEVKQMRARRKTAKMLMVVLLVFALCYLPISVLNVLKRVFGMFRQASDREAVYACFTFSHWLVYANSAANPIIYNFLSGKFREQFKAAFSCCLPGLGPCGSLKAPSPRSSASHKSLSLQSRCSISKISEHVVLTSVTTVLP

On to `C[C@@H]1C2CC(C2)N(C(=O)c2cc(F)ccc2-n2nccn2)C1CNc1cnc(C(F)(F)F)cn1` (single isomer, unassigned) [Example 223, N-{[(3R,4S) or (3S,4R)-2-[5-fluoro-2-(2H-1,2,3-triazol-2-yl)benzoyl]-4-methyl-2-azabicyclo[3.1.1]heptan-3-yl]methyl}-5-(trifluoromethyl)pyrazin-2-amine], for which the “OX1 pKi (SPA binding)” value in series [1] was determined as 8.13. The “OX2 pKi (SPA binding)” value in series [2] came out at 4.98. Further, in series [3], the fraction unbound at 5 h, 5 μM amounted to 0.022.
On the same counts, the results for `C[C@@H]1C2CC(C2)N(C(=O)c2cc(F)ccc2-n2nccn2)C1CNc1nc2cccnc2s1` (single isomer, unassigned) [Example 230, N-{[(3R,4S) or (3S,4R)-2-[5-fluoro-2-(2H-1,2,3-triazol-2-yl)benzoyl]-4-methyl-2-azabicyclo[3.1.1]heptan-3-yl]methyl}-[1,3]thiazolo[5,4-b]pyridin-2-amine] are 8.46, 5.32 and 0.0438.
The like results for `C[C@@H]1C2CC(C2)N(C(=O)c2cc(C#N)ccc2-n2nccn2)C1CNc1nc2cccnc2s1` (single isomer, unassigned) [Example 233, 3-[(3R,4S) or (3S,4R)-4-methyl-3-[({[1,3]thiazolo[5,4-b]pyridin-2-yl}amino)methyl]-2-azabicyclo[3.1.1]heptane-2-carbonyl]-4-(2H-1,2,3-triazol-2-yl)benzonitrile] were, in that order, 8.41, 5.11 and 0.066.
